Results from PMC4815073, “Targeting of tubulin polymerization and induction of mitotic blockage by Methyl 2-(5-fluoro-2-hydroxyphenyl)-1H-benzo[d]imidazole-5-carboxylate (MBIC) in human cervical cancer HeLa cell” (Journal of Experimental & Clinical Cancer Research : CR, 2016).

Columns and labels:
[1] = tested on: HCT-116 cells; assay: MTT cytotoxicity assay, HCT-116; assay type: cell-based, human; details: for IC50: Homo sapiens, MTT
Description: (§1) The human cervical cancer cell-line, HeLa (CCL-2.2; ATCC, Manassas, VA), HCT-116 (CCL-247; ATCC, Manassas, VA), A549 (CCL-185; ATCC, Manassas, VA), HepG-2 (HB-8065; ATCC, Manassas, VA) and WRL-68 (CL-48; ATCC, Manassas, VA), were obtained from American Type Culture Collection (ATCC). HeLa, A549, HepG2 and WRL68 cells were maintained in Dulbecco’s Modified Eagle Medium (DMEM, Life Technologies, Inc, Rockville, MD). HCT-116 was obtained in McCoy’s 5a Medium Modified (Life Technologies, Inc, Rockville, MD) supplemented with 10 % fetal bovine serum and 1 % penicillin/streptomycin. Cells were incubated at 37 °C in a humidified cell culture 5 % CO2 incubator. Cells were passaged until reaching 70-80-% confluency for experimental purposes.
(§2) Cytotoxicity of MBIC was estimated by MTT assay. Briefly, 1 × 10^4 cells/well were seeded in a 96-well plate and incubated at 37 °C in 5 % CO2. After 24 h, cells were treated with different concentrations (0.02, 0.04, 0.1, 0.2, 0.4, 0.8, 1.5, 3, 6, 12, 25, 50 μM) of MBIC. 0.01 % DMSO was used as vehicle control. Cells were incubated for 24 and 48 h at 37 °C. Subsequently, 50 μl/well of 3-(4,5-dimethylthiazol-2-yl)-2,5-diphenyltetrazolium bromide (MTT, 2 mg/ml) was added and incubated for 2 h. After the incubation, the media was discarded and 100 μl DMSO was replaced into each well to dissolve the formazan crystal. The colorimetric assay was quantified at 570 nm wavelength using Chameleon V microplate reader (Hidex, Turku, Finland). The anti-proliferation activity of MBIC was expressed as an IC50 value. The percentage of cell viability was calculated as described previously.

[2] = tested on: HeLa cells; assay: Drug combination assay (MTT, Chou-Talalay, CampuSyn); assay type: cell-based; details: Homo sapiens, 24 h, drug alone, read-out: (Dm)IC50 Drug 2 (MBIC alone)
Procedure: In order to discover the synergistic effects of MBIC with conventional drugs briefly, cells were seeded in 1 × 10^4 cells/well and were incubated at 37 °C overnight. […] Also, the MBIC, combined with each of the selected conventional drugs in a 1:1 ratio, were diluted in concentration from 50 μM to 0.1 μM. Cell viability assay (MTT assay) was performed 24 h post-treatment and absorbance were measured in a microplate reader to find out the IC50 for each conventional drug alone and in combination with MBIC on HeLa cells. For this analysis, we used the commercial software package CampuSyn (Biosoft, Cambridge, United Kingdom; Ref.9). […] Furthermore, the software produced an automated isobologram and fraction affected-combination index (Fa-CI) plot.

[3] = target: T1, tubulin (Sus scrofa, UniProt P02550+P02554); assay: Tubulin polymerization assay; assay type: biochemical; details: 10 μM drug, 3 mg/ml tubulin, 37 °C, 340 nm; untreated 12 mOD/min
T1 construct: purchased Cytoskeleton BK011P
T1 sequence (P02550 whole entry): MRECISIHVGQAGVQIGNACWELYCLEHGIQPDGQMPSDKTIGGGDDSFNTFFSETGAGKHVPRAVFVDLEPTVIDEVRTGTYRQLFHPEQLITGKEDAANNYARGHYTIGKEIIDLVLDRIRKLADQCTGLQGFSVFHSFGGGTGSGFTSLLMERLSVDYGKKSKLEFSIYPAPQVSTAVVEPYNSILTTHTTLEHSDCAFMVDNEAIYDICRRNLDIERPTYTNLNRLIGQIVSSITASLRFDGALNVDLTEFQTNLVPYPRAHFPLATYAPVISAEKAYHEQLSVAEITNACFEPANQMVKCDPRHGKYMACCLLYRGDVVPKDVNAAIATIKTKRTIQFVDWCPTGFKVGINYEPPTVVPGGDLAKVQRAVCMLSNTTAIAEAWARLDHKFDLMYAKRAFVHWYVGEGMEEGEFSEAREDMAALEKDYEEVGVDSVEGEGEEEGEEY
T1 sequence (P02554 whole entry): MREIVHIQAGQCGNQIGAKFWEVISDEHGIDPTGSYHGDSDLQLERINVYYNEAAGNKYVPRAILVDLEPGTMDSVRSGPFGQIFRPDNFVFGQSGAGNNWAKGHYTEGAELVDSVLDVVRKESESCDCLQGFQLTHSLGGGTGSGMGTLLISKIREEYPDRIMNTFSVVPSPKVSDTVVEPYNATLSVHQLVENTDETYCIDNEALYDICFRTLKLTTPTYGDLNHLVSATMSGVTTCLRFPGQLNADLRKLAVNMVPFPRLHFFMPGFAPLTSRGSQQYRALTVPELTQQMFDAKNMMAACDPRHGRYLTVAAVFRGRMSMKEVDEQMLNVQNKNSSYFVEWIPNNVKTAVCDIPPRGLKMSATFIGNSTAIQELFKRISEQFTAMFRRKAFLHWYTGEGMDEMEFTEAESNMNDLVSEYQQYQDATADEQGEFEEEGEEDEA
Procedure: To investigate the effect of MBIC on tubulin polymerization, a fluorescence-based tubulin polymerization assay kit (Cytoskeleton-Cat. # BK011P) was used according to the manufacturer’s protocol. Briefly, 200 μl of pure tubulin protein was re-suspended in 420 μl of ice cold Tubulin Polymerization Buffer (TPB) to give a final concentration of 3 mg/ml tubulin, supplemented with 80 mM PIPES, 2 mM MgCl2, 0.5 mM EGTA, 1 mM GTP, 20 % (v/v) glycerol. 100 μl of tubulin reaction mixture were added to each well in a 96-well plate containing the selected concentration of MBIC (10 μM). […] Samples were mixed well and the tubulin assembly was monitored by an increase in fluorescence emission at 340 nm in kinetic mode for 120 min at 37 °C using a plate reader (Infinite® 200 PRO—Tecan plate reader, USA).

[4] = Annexin V-FITC/PI apoptosis detection by flow cytometry; assay type: cell-based, human; details: human, HeLa cells, read-out: viable cells (Q3, annexin V- PI-)
Procedure: (§3) Apoptosis was detected using BD Pharmingen Annexin V-FITC Apoptosis Detection Kit as per manufacturer’s protocol. Briefly, cells were seeded in 25 cm^2 culture flasks (10 × 10^5 cells/flask) and were treated in 3 different MBIC concentrations for 24 and 48 h. Later, treated cells were harvested and washed with 1 ml of 1X Phosphate Buffered-Saline (PBS) before adding 200 μl 1X annexin-binding buffer. 10 μl of annexin V-FITC and 10 μl of PI were added to each 200 μl of cell suspension. Cells were then incubated in total darkness for 15 min at room temperature. 500 μl of 1X annexin-binding buffer was added just before the flow cytometry analysis.

[5] = tested on: HeLa cells; assay: as above; assay type: cell-based, human; details: 24 h
Procedure: as §3

[6] = tested on: two breast cancer cell lines; parameters: method as in earlier work; details: cited from earlier work
[7] = tested on: HeLa cells expressing EGFP-α-tubulin, EGFP-CENP-A and histone H2B-mCherry; assay: Live-cell imaging of mitotic spindle; assay type: cell-based, human; details: MBIC 10 μM, nocodazole 2 μM; imaged at 15 min intervals
Procedure: HeLa cells expressing EGFP-α-tubulin, EGFP-CENP-A and histone H2B-mCherry were grown in glass chambers (Thermo Scientific, USA). Thirty minutes before imaging, the medium was changed to pre-warmed Leibovitz’s L-15 medium (Life Technologies) supplemented with 20 % fetal bovine serum and 20 mM HEPES, pH 7.0. Recordings were made in a temperature-controlled incubator at 37 °C. Images were collected with an Olympus IX-71 inverted microscope (Olympus) controlled by DeltaVision softWoRx (Applied Precision) using a 20x 0.75 NA UPlan SApochromat objective lens (Olympus). Z-series of six sections in 3 μm increments were captured every 15 min. Image stacks were projected.

[8] = tested on: WRL-68 cells; assay: MTT cytotoxicity assay, WRL-68 normal liver cells; assay type: cell-based, human; details: Homo sapiens
Description: as §1, §2

**Q.** What does the source list for `COC(=O)c1ccc2[nH]c(-c3cc(F)ccc3O)nc2c1` [MBIC, Methyl 2-(5-fluoro-2-hydroxyphenyl)-1H-benzo[d]imidazole-5-carboxylate]?
**A.** IC50 ([1]; HCT-116, 24 hours): 2720 ± 400 nM; IC50 ([1]; HCT-116, 48 hours): 2010 ± 300 nM; SI (Selectivity Index) ([1]; IC50 WRL-68 / IC50 HCT-116, 24 hours): 3.70; SI (Selectivity Index) ([1]; IC50 WRL-68 / IC50 HCT-116, 48 hours): 3.56; IC50 [2]: 210 ± 20 nM; Tubulin polymerization maximal velocity (Vmax) [3]: 2.45 mOD/min; viability at 24 h, 0.21 µM ([4]; 0.21 μM): 48.8%; viability at 24 h, 0.42 µM ([4]; 0.42 μM): 36.2%; viability at 24 h, 1 µM ([4]; 1 μM): 17.4%; late apoptotic cells (Q2, annexin V+ PI+) ([5]; 0.21 μM): 44.8 ± 2.3%; late apoptotic cells (Q2, annexin V+ PI+) ([5]; 1 μM): 74.8 ± 4.2%; cytotoxic effect compared to cisplatin [6]: potent cytotoxic effect; mitotic spindle formation in live-cell imaging [7]: did not form the spindle; IC50 ([8]; WRL68, 24 hours): 10100 ± 1200 nM; IC50 ([8]; WRL68, 48 hours): 7160 ± 900 nM
